Measurements from patent US20250236589A1, “THERAPEUTIC PHENETHYLAMINE COMPOSITIONS AND METHODS OF USE” (Cybin IRL Limited, priority 2022, published 2025).
Like-named read-outs stand apart in the source and are kept apart here.

Tests used:
5-HT2A receptor [1] = target: T1, 5-HT2A receptor (Homo sapiens (Human), UniProt P28223); assay: 5-HT2A radioligand competition binding ([3H]LSD or [3H]ketanserin)
MAO-A = MAO-A (Homo sapiens (Human), UniProt P21397); assay: Recombinant human MAO-A activity (stability); format: in vitro ADME; conditions: hrMAO 0.02 mg/mL, read-out: MAO-A, t1/2
MAO-A, sequence (P21397 whole entry, looked up): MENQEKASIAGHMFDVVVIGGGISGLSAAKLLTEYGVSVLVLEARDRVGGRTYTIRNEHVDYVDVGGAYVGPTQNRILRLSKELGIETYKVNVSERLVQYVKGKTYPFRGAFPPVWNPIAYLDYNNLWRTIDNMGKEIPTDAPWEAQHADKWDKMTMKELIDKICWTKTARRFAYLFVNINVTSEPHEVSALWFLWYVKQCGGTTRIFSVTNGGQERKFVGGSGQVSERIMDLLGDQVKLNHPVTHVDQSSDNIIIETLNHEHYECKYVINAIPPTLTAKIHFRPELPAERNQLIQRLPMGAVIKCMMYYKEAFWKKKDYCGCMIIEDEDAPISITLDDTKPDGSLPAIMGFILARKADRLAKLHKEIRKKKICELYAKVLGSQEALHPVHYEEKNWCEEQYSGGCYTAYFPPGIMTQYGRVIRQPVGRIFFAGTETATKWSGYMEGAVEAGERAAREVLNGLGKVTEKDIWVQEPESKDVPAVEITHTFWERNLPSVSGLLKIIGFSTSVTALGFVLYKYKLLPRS
Procedure: hrMAO-A and MAO control were purchased from XenoTech. The reaction mixture was prepared as described below. The test compound was added into the reaction mixture at a final concentration of 1 μM or co-dosed with their deuterated analog at 1 μM each. The positive control kynuramine (25 μM) was run simultaneously with the test compound in a separate reaction. The reaction mixture (without test compounds or kynuramine) was equilibrated in a shaking water bath at 37° C. for 5 minutes. The reaction was initiated by the addition of the test compound or kynuramine, and the mixture was incubated in a shaking water bath at 37° C. Aliquots (150 μL) of the test compound reaction mixture were withdrawn at 0, 5, 10, 20, 30, 60, and 120 minutes. Aliquots (150 μL) of the positive control reaction mixture were withdrawn at 0 and 30 minutes. Test compound(s) and kynuramine samples were immediately combined with 150 μL of ice-cold 100% acetonitrile containing 0.1% formic acid and internal standard (0.2 μM metoprolol) to terminate the reaction. The samples were then mixed and centrifuged to precipitate proteins. All samples were assayed by LC-MS/MS. The peak area response ratio (PARR) of analyte to internal standard at each time point was compared to the PARR at time 0 to determine the percent remaining at each time point. Half-lives were calculated using GraphPad software, fitting to a single-phase exponential decay equation.

[2] = In vitro liver microsome stability (RLM); format: in vitro ADME; conditions: rat, rat liver microsomes, 0.5 mg/mL microsomes, NADPH, read-out: RLM, t1/2
Procedure: In vitro stability was determined in Human (HLM), Rat (RLM), Mouse (MsLM), and dog (DLM) Liver Microsomes. All liver microsomes were purchased from a commercial supplier (e.g. XenoTech). The reaction mixture, minus NADPH, was prepared as described below. The test compound was added into the reaction mixture at a final concentration of 1 μM or co-dosed with their deuterated analog(s) at 1 μM each. The control compound, testosterone, was run simultaneously with the test compound in a separate reaction. The reaction mixture (without cofactor) was equilibrated in a shaking water bath at 37° C. for 5 minutes. The reaction was initiated by the addition of the cofactor, and the mixture was incubated in a shaking water bath at 37° C. Aliquots (150 μL) were withdrawn at 0, 5, 10, 20, 30, 60, and 120 minutes. Test compound and testosterone samples were immediately combined with 150 μL of ice-cold acetonitrile (ACN) containing 0.1% formic acid and internal standard to terminate the reaction. The samples were then mixed and centrifuged to precipitate proteins. All samples were assayed by LC-MS/MS using electrospray ionization. The peak area response ratio (PARR) of analyte to internal standard at each time point was compared to the PARR at time 0 to determine the percent remaining at each time point. Half-lives were calculated using GraphPad software, fitting to a single-phase exponential decay equation.

5-HT2C receptor = 5-HT2C receptor (Homo sapiens (Human), UniProt P28335); assay: 5-HT2C radioligand competition binding ([3H]mesulergine or [3H]LSD); conditions: read-out: 5-HT2C, Ki; radioligand [3H]mesulergine
5-HT2C receptor, sequence (P28335 whole entry, looked up): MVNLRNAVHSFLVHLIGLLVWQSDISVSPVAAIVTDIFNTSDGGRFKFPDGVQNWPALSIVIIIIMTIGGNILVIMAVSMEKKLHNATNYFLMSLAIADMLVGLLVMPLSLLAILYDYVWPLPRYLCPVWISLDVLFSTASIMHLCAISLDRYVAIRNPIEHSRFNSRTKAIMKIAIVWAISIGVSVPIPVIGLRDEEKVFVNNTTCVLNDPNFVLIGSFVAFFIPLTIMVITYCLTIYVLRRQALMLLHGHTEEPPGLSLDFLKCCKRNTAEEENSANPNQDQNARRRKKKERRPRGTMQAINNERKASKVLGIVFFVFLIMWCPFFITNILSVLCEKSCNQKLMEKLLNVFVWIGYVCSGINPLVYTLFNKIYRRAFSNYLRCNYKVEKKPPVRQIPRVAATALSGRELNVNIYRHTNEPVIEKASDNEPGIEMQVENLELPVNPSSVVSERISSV

5-HT2A receptor [3] = target: T1, 5-HT2A receptor; assay: 5-HT2A functional assay, IP1 (IPOne); format: cell-based; conditions: for 2A/2B EC50 Selectivity / Emax: IP1 assay; for Emax: relative to 5-HT
Procedure: After incubation, cells were lysed and fluorescence acceptor and donor were added. FRET was measured after 60 min at room temperature using a microplate reader (Envision, Perkin Elmer). TRUPATH assays followed a similar workflow, except that different reagents were used, and LiCl was not included in the samples; the protocol was based on the report by Olsen, R. H. J. et al., cited above.

human 5-HT2B receptor = human 5-HT2B receptor (Homo sapiens (Human), UniProt P41595); assay: 5-HT2B functional assay, IP1 (IPOne); format: cell-based; conditions: for Emax: IP1 assay
human 5-HT2B receptor, sequence (P41595 whole entry, looked up): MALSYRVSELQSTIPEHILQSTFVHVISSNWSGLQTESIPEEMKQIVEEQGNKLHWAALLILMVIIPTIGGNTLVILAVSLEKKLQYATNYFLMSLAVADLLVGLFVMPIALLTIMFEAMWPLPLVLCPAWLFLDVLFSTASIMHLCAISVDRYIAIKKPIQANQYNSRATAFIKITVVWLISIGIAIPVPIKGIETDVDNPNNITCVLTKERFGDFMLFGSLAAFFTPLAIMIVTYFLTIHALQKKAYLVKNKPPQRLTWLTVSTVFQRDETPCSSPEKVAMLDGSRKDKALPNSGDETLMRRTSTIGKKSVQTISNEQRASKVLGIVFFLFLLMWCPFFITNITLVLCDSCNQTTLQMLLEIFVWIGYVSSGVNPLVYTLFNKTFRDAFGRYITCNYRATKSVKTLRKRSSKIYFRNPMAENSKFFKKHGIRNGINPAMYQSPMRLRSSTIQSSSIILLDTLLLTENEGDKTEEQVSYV
Procedure: 5-HT2A,2B,2C receptor-mediated Gq activation—canonical signaling pathways—[phosphoinositide hydrolysis leading to the production of inositol phosphate 1 (IP1, IPOne, Cisbio assay) or direct G-protein activation using TRUPATH technology]were measured as previously described (Porter, R. H. P., Benwell, K. R., Lamb, H., Malcolm, C. S., Allen, N. F., Revell, D. F., Adams, D. R. and Sheardown, M. J., 1999, Functional characterization of agonists at recombinant human 5-HT2a, 5HT2b and 5-HT2c receptors in CHO-K1 cells, Brit J Pharmacol 128, 13; Olsen, R. H. J., DiBerto, J. F., English, J. G. et al. TRUPATH, an open-source biosensor platform for interrogating the GPCR transducerome. […] Briefly, for the IPOne assay, for 5-HT2ARs, CHO-K1 or HEK-293 cells were incubated with test articles and 5-HT (positive control) in stimulation buffer containing LiCl. After incubation, cells were lysed and fluorescence acceptor and donor were added. FRET was measured after 60 min at room temperature using a microplate reader (Envision, Perkin Elmer). TRUPATH assays followed a similar workflow, except that different reagents were used, and LiCl was not included in the samples; the protocol was based on the report by Olsen, R. H. J. et al., cited above.

5-HT1A receptors = 5-HT1A receptors (Homo sapiens (Human), UniProt P08908); assay: 5-HT1A radioligand binding ([3H]8-OH-DPAT); conditions: for inhibition at 0.1 µM: 100 nM
Procedure: In another series of 5-HT1A,2A,2B radioligand competition binding assays, the conditions were as follows: For 5-HT1A assays, cell membrane homogenates (˜30 μg protein) derived from HEK-293 cells expressing human 5-HT1ARs were incubated with 0.5 nM [^3H]8-hydroxy-2-(di-n-propylamino)tetralin ([^3H]8-OH-DPAT) for 60 min at room temperature in the presence or absence of the test article. Non-specific binding was determined in the presence of 10 μM 8-OH-DPAT. Samples were then analyzed as described above, with only immaterial differences. […] Samples were then analyzed as described above.

mice = assay: Head-twitch response (HTR) screening in mice; format: in vivo, mouse; conditions: mice, 3 mg/kg s.c.
Procedure: Protocols were followed according to Canal C E, Morgan D. Head-twitch response in rodents induced by the hallucinogen 2,5-dimethoxy-4-iodoamphetamine: a comprehensive history, a re-evaluation of mechanisms, and its utility as a model. […] Mice were housed in standard laboratory cages with ad libitum access to food and water and were acclimated to the vivarium for at least one week prior to testing in a procedure room. In a typical experiment, mice were injected 3 mg/kg of test article subcutaneously. Mice were placed immediately thereafter in a clear, polycarbonate box (46×20×20 cm), and HTRs were counted at various time points after administration using hand-held tally counters. In a separate experiment, plasma and brain samples were collected at 15 and 160 minutes after administration of test compounds to measure plasma and brain concentrations. Quantification was performed using LC-MS/MS method (LLOQ, 9 nM).

[4] = Plasma and brain concentrations after dosing in mice (screening); format: in vivo, mouse; conditions: mouse; for concentration at 15 min / concentration at 160 min: sc, mice, 3 mg/kg s.c.; for Kp at 160 min: brain/plasma, subcutaneous, 3 mg/kg, 160 min after 3 mg/kg, read-out: brain/plasma ratio, 160 min
[5] = brain, read-out: Brain, 160 min
[6] = plasma, read-out: Plasma, 15 min
[7] = plasma, read-out: Plasma, 160 min

Work on `COc1cc(C(F)(F)F)c(OC)cc1CCN` [Reference Compound 4, 2-(2,5-dimethoxy-4-(trifluoromethyl)phenyl)ethan-1-amine, reference compound] yielded a Ki (5-HT2A receptor [1]; read-out: 5-HT2A, Ki, radioligand [3H]ketanserin) of 25 nM, a half-life at 1 μM (MAO-A) of 1.46 h and a half-life at 1 μM [2] of 0.128 h. For the same compound, the Ki (5-HT2C receptor) was 35 nM.

In the case of `COc1cc(SCCC(F)F)c(OC)cc1CCN` [Compound I-3, 2-(4-((3,3-difluoropropyl)thio)-2,5-dimethoxyphenyl)ethan-1-amine], the EC50 (5-HT2A receptor [3]) is reported as 10 nM, the “2A/2B EC50 Selectivity” value (5-HT2A receptor [3]) is reported as 16 and the Emax (5-HT2A receptor [3]) is reported as 93%. For the same compound, the Ki (5-HT2A receptor [1]) was 44 nM, the “affinity at 5-HT2A receptors (in words)” value (5-HT2A receptor [1]) was “high affinity” and the Ki (5-HT2A receptor [1]; read-out: 5-HT2A, Ki, [3H]LSD, high-affinity active state) was 0.4 nM. For the same compound, the EC50 (human 5-HT2B receptor) was 160 nM, the Emax (human 5-HT2B receptor; constrained to 100%) was 100% and the half-life at 1 μM [2] was 1.85 h. The inhibition at 0.1 µM (5-HT1A receptors) was 10%, the inhibition at 1 µM (5-HT1A receptors) was 63% and the “HTR 15-25 min” value (mice) was 5. For the same compound, the “HTR 160-170 min” value (mice) was 2.5, the concentration at 15 min ([4]; brain, read-out: Brain 15 min) was 670 nM and the concentration at 160 min [4, 5] was 510 nM. It also gave a Kp at 160 min [4] of 9.3, a concentration at 15 min [4, 6] of 700 nM and a concentration at 160 min [4, 7] of 55 nM.

For `COc1cc(SC(F)F)c(OC)cc1CCN` [Compound I-8, 2-(4-((difluoromethyl)thio)-2,5-dimethoxyphenyl)ethan-1-amine], the EC50 (5-HT2A receptor [3]) was 5.3 nM, the “2A/2B EC50 Selectivity” value (5-HT2A receptor [3]) was 12.8 and the Emax (5-HT2A receptor [3]) was 99%. The “affinity at 5-HT2A receptors (in words)” value (5-HT2A receptor [1]) was “high affinity”, the Ki (5-HT2A receptor [1]; read-out: 5-HT2A, Ki, radioligand [3H]LSD) was 6.3 nM and the EC50 (human 5-HT2B receptor) was 67.9 nM. It also gave an Emax (human 5-HT2B receptor; relative to 5-HT) of 87%, an inhibition at 0.1 µM (5-HT1A receptors) of 38% and an inhibition at 1 µM (5-HT1A receptors) of 84%. The “HTR 15-25 min” value (mice) was 33.4, the “HTR 160-170 min” value (mice) was 17.4 and the concentration at 15 min ([4]; brain, read-out: Brain 15 min) was 1900 nM. For the same compound, the concentration at 160 min [4, 5] was 2200 nM, the Kp at 160 min [4] was 74 and the concentration at 15 min [4, 6] was 300 nM. It also gave a concentration at 160 min [4, 7] of 30 nM.
